The values that follow are results of earlier work, collected in patent US20040110696A1, “GENE THERAPY SYSTEM AND METHOD USING ALPHA-MSH AND ITS DERIVATIVES” (priority 2003, published 2004).

Where no end group is shown, it is not given here.

Data set [1] relates to fever. The conditions noted are these: for antipyretic potency: relative to the α-MSH(11-13) sequence; for antipyretic activity: rabbit, in vivo.
Data set [2] concerns inflammation. As to conditions: for anti-inflammatory activity: in vitro and in vivo.

As for “8-13 sequence: α-MSH fragment, residues 8-13 (RWGKPV; ends and bridges not checked; UniProt P01189 145-150, looked up, fragment)”, the antipyretic potency entry in data set [1] was “greater than that of the 11-13 sequence”.
Turning to “9-13 sequence: α-MSH fragment, residues 9-13 (WGKPV; ends and bridges not checked; UniProt P01189 146-150, looked up, fragment)”, in data set [1], the antipyretic potency entry was “almost devoid of activity”.
On to “10-13 sequence: α-MSH(11-13) with glycine added to form the 10-13 sequence (GKPV; ends and bridges not checked; UniProt P01189 147-150, looked up, fragment)”, for which the antipyretic potency result in data set [1] is “slightly decreased potency”.
With Ac-[D-K11]-α-MSH 11-13-NH2, in data set [2] (relative to L-form tripeptide, kind of activity not given, cited Hiltz 1991 anti-inflammatory activity), the “general potency of α-MSH (11-13) stereochemical analogs” value is reported as “same general potency as the L-form”.
In the case of MEHFRWG [α-MSH sequence (4-10)], the anti-inflammatory activity entry in data set [2] is on record as “little”. Moreover, the antipyretic activity result in data set [1] is “little”.
As to [Nle^4,D-Phe^7]-α-MSH, the “potency in reducing fever” value in data set [1] (relative to the parent peptide α-MSH) is reported as “approximately ten times more potent”.
In the case of lysine-proline-valine [KPV], the anti-inflammatory activity entry in data set [2] is “parallel those of the parent molecule”. Further, the antipyretic activity result in data set [1] is reported as “parallel those of the parent molecule”.
